Measurements: BindingDB's records for doi:10.1021/jm00099a006 (Merck Research Laboratories, 1992)

Target: T1, Gag-Pol polyprotein [588-1027]/[588-1147] (Human immunodeficiency virus 1, UniProt P04585)
T1 construct: 588-1027; 588-1147
Test: HIV-1 RT Assay
Details: pH 8.2

Row | SMILES | IC50 [µM]
1 | O=C1c2ccccc2C(=O)N1CCc1cccnc1O [2-[2-(2-oxo-1,2-dihydropyridin-3-yl)ethyl]-2,3-dihydro-1H-isoindole-1,3-dione] | > 300
2 | CCc1cc(C(O)CN2C(=O)c3ccccc3C2=O)c(OC)nc1C (stereo not drawn) [2-[2-(5-ethyl-2-methoxy-6-methylpyridin-3-yl)-2-hydroxyethyl]-2,3-dihydro-1H-isoindole-1,3-dione] | > 300
3 | CCc1cc(C(=O)CN2C(=O)c3ccccc3C2=O)c(OC)nc1C [2-[2-(5-ethyl-2-methoxy-6-methylpyridin-3-yl)-2-oxoethyl]-2,3-dihydro-1H-isoindole-1,3-dione] | > 300
4 | CCc1cc(CCN2C(=O)c3ccccc3C2=O)c(OC)nc1C [2-[2-(5-ethyl-2-methoxy-6-methylpyridin-3-yl)ethyl]-2,3-dihydro-1H-isoindole-1,3-dione] | 6.2
5 | CCc1cc(C(O)CN2C(=O)c3ccccc3C2=O)c(O)nc1C (stereo not drawn) [2-[2-(5-ethyl-6-methyl-2-oxo-1,2-dihydropyridin-3-yl)-2-hydroxyethyl]-2,3-dihydro-1H-isoindole-1,3-dione] | > 300
6 | CCc1cc(C(=O)CN2C(=O)c3ccccc3C2=O)c(=O)[nH]c1C [2-[2-(5-ethyl-6-methyl-2-oxo-1,2-dihydropyridin-3-yl)-2-oxoethyl]-2,3-dihydro-1H-isoindole-1,3-dione] | > 300
7 | CCc1cc(CCCN2C(=O)c3ccccc3C2=O)c(OC)nc1C [2-[3-(5-ethyl-2-methoxy-6-methylpyridin-3-yl)propyl]-2,3-dihydro-1H-isoindole-1,3-dione] | > 300
8 | CCc1cc(CN2C(=O)c3ccccc3C2=O)c(OC)nc1C [2-[(5-ethyl-2-methoxy-6-methylpyridin-3-yl)methyl]-2,3-dihydro-1H-isoindole-1,3-dione] | 16
